Test results taken from US8722030B2, “Composite vaccine adjuvant” (Institute of Medical Biology, Chinese Academy of Medical …, priority 2011, dated 2014).

Key:
Settings in all cases: P<0.05
[1] = test system: anti-HBs IgG; test: Test 2: serum anti-HBs IgG level by ELISA after immunization with hepatitis B surface antigen plus adjuvant (composite adjuvant of embodiment 2)
Protocol: Both of the total volume of vaccine for injection and of the composite vaccine adjuvant were 0.1 ml.
In the single sodium ferulate adjuvant group, sodium ferulate 25 mg and hepatitis B surface antigen 5 μg were mixed and dissolved into physiological saline 0.1 ml, and then were injected into mice subcutaneously.
In the adjuvant-free group, hepatitis B surface antigen 5 μg were dissolved into physiological saline 0.1 ml, and then were injected into mice subcutaneously.
(§1) In the blank group, each mouse was injected with physiological saline 0.1 ml.
(§2) Immunization schemes: three times immunization in total, subcutaneous injection of ICR mice in 0, 1, 6 month respectively.
(§3) B. ELISA Detection of Serum Anti-HBs IgG Level […]
(§4) The obtained experimental data were analyzed by single factor analysis of variance using SPSS11.5 statistics software, and P<0.05 having a statistically significance.

[2] = test system: anti-HBs IgG; test: Test 3: serum anti-HBs IgG level by ELISA after immunization with hepatitis B surface antigen plus adjuvant (composite adjuvant of embodiment 3)
Protocol: Both of the total volume of vaccines for injection and of the composite vaccine adjuvant were 0.1 ml.
In the single sodium ferulate adjuvant group, sodium ferulate 50 mg and hepatitis B surface antigen 5 μg were mixed and dissolved into physiological saline 0.1 ml, and then were injected into mice subcutaneously.
(§5) In the adjuvant-free group, hepatitis B surface antigen 5 μg were mixed and dissolved into physiological saline 0.1 ml, and then were injected into mice subcutaneously.
as §1, §2
B. ELISA Detection of Serum Anti-HBs IgG Level
After 4, 8, 16, 24, 32 weeks of the initial immunization, collect vein blood of mouse tail, separate serum, and then use ELISA to detect the serum anti-HBs IgG level by method of protein microporous kit. […]
as §4

[3] = test system: anti-HBs IgG; test: Test 1: serum anti-HBs IgG level by ELISA after immunization with hepatitis B surface antigen plus adjuvant (composite adjuvant of embodiment 1)
Protocol: Both of the total volume of vaccines and the composite vaccine adjuvant for injection were 0.1 ml.
In the single sodium ferulate adjuvant group, sodium ferulate 10 mg and hepatitis B surface antigen 5 μg were mixed and dissolved into physiological saline 0.1 ml, and then were injected into mice subcutaneously.
as §5, §1, §2, §3, §4

Measured: antibody levels compared with the aluminum adjuvant control group

[OH-].[OH-].[Zn+2] [zinc hydroxide]
significantly higher: all assays above
